From US7586022B2, “Transgenic non-human animal model of lung tumorigenesis” (Trustees of Dartmouth College, priority 2006, dated 2009)
Entries after “also recorded” stand apart in the source; their conditions may differ.

Key:
exogenous cyclin E = exogenous cyclin E expression in retrovirally transduced BEAS-2B cells treated with agents; type: cell-based, human; conditions: treated for 24, 36 and 48 hours
Experimental: To determine whether other agents could modulate the expression of cyclin E, […], N-(4-hydroxyphenyl)retinamide (4HPR or fenretinide), or other non-classical retinoids for 24, 36 and 48 hours.

[1] = system: BEAS-2B human bronchial epithelial cells; conditions: cited from earlier work

In the case of `CC1(C)CC[C@]2(C(=O)O)CC[C@]3(C)[C@H](C(=O)C=C4[C@@]5(C)C=C(C#N)C(=O)C(C)(C)[C@@H]5CC[C@]43C)[C@@H]2C1` [CDDO, 2-cyano-3,12-dioxooleana-1,9-dien-28-oic acid], the “exogenous cyclin E expression” value (exogenous cyclin E) is reported as “potently repress exogenous cyclin E expression; also recorded: most potently decreased exogenous cyclin E expression, as early as 24 hours after treatment”.
In the case of `CC1=C(/C=C/C(C)=C/C=C/C(C)=C/C(=O)O)C(C)(C)CCC1` [RA, All-trans-retinoic acid], the NNK-mediated transformation ([1]; BEAS-2B cells exposed to NNK) is given as “antagonizes NNK-mediated transformation by causing G1 arrest” and the “cyclin E expression” value ([1]; RA treatment) is given as “represses cyclin E expression via activation of a proteosomal degradation pathway”.
